According to US7632830B2, “Lactam compounds and pharmaceutical use thereof” (Ajinomoto Co., Inc., priority 2000, dated 2009):
In brackets after ≈: the same amount, converted by molar mass.

tested on: adipose cells of rats; test: Evaluation of the sugar-transporting activity (2-[14C(U)]-deoxy-D-glucose incorporation); type: cell-based; details: 100 μg/ml of each compound; evaluated on the basis of the reinforcing effect of insulin (100 nM); rat adipose cells
Experimental: After the decapitation and venesection of 6 male Wistar rats (body weight: 150 to 200 g), an incision was made in the abdomen of each rat to extract 6 g in total of epididymal adipose tissues. The tissues were finely cut into 2 mm×2 mm pieces in 6 ml of KRH (Krebs-Ringer Hepes, composition: 130 mM of sodium chloride, 4.7 mM of potassium chloride, 1.2 mM of potassium dihydrogenphosphate, 1.2 mM of magnesium sulfate, 1 mM of calcium chloride and 25 mM of Hepes, pH=7.6) containing 5% of BSA (bovine serum albumin). 24 mg of collagenase (type I) was added thereto and the digestion treatment was conducted for about 40 minutes to obtain about 6 ml of isolated adipose cells. The collagenase was removed by the buffer exchange. 2% BSA/KRH solution was added to the residue for the re-suspension to obtain 45 ml of an adipose cell suspension.
The sugar-transporting activity of the compounds of the present invention was evaluated with reference to a method described in a literature [Annual Review of Biochemistry, Vol. 55, p. 1059 (1986)]. In the test, 200 μl of the adipose cell suspension was poured in each polystyrene test tube, 100 μl of the solution of the test substance (by dilution of 10 mg/ml substance dimethyl sulfoxide solution with KRH) was added thereto, and the obtained mixture was shaken and then cultured at 37° C. for 30 minutes.
The sugar-transporting activity was evaluated by measuring the quantity of 2-[^14C(U)]-deoxy-D-glucose incorporated per a unit time. Namely, 2-[^14C(U)]-deoxy-D-glucose was added to the adipose cell suspension after the pre-culture (the final concentration: 0.5 μCi/sample). 5 minutes after, cytochalasin B (final concentration: 10 μM) was added to the mixture to terminate the sugar transportation. After forming a dinonyl phthalate layer, the obtained mixture was centrifuged to separate the adipose cells from the buffer. The quantity of 2-[^14C(U)]-deoxy-D-glucose contained in the adipose cell layer was determined with a liquid scintillation counter to determine the quantity of the incorporated sugar. In this evaluation system, when insulin (100 nM) having the effect of increasing the sugar transportation was used, the effect was about 7 times as high as that obtained in the insulin-free control group.
The results of the evaluation of the sugar-transporting activity obtained by using 100 μg/ml of each compound of the present invention are shown in Table 6. The sugar transporting activity in Table 6 was evaluated on the basis of the reinforcing effect of insulin (100 nM). […] The symbols in Table 6 are as follows: • No: Example No., and • A: sugar transporting activity.
The results of the evaluation of the sugar-transporting activity obtained by using each compound of the present invention are shown in Table 7. The sugar transporting activity in Table 7 was determined in terms of the concentration (EC50: μg/ml) of a test compound, having a reinforcing effect corresponding to 50% on the basis of the reinforcing effect of insulin having a reinforcing effect of 100%.

Row | SMILES | activation at 100 µg/mL [%]
1 | CCCCOc1ccc(C2Nc3ccccc3NC3=C2C(=O)NC3)c(OCC)c1 (centres unmarked) [Example 23] | ≥ 70
2 | COc1cc(OCc2ccccc2)ccc1C1Nc2ccccc2NC2=C1C(=O)NC2 (centres unmarked) [Example 28] | 40 to 70
3 | O=C1NCC2=C1C(c1cnc(-c3ccccc3)nc1)Nc1ccccc1N2 (centres unmarked) [Example 34] | 20 to 40
4 | O=C1NCC2=C1C(c1ccc(Cl)cc1)Nc1ccccc1N2 (centres unmarked) [Example 2] | 20 to 40
5 | CCCCOc1ccc(C2Nc3ccccc3NC3=C2C(=O)NC3)c(OCCC)c1 (centres unmarked) [Example 24] | ≥ 70
6 | COc1ccccc1[C@H]1N[C@@H]2CCCC[C@H]2NC2=C1C(=O)NC2 [Example 39] | ≥ 70
7 | O=C1NCC2=C1C(c1ccc(-n3cccn3)cc1)Nc1ccccc1N2 (centres unmarked) [Example 17] | 20 to 40
8 | O=C1NCC2=C1C(c1ccc(I)cc1)Nc1ccccc1N2 (centres unmarked) [Example 3] | 20 to 40
9 | CC(C)(C)c1ccc(C2Nc3ccccc3NC3=C2C(=O)NC3)cc1 (centres unmarked) [Example 5] | 20 to 40
10 | O=C1NCC2=C1[C@@H](c1ccc(Br)cc1)N[C@@H]1CCCC[C@H]1N2 [Example 37] | 40 to 70
11 | CCCCCCOc1ccc(C2Nc3ccccc3NC3=C2C(=O)NC3)c(OC)c1 (centres unmarked) [Example 27] | 40 to 70
12 | CN1C2=C(C(=O)NC2)C(c2ccc(Br)cc2)Nc2ccccc21 (centres unmarked) [Example 44] | 20 to 40

same assay, conditions: concentration having a reinforcing effect corresponding to 50% of the reinforcing effect of insulin (100%); rat adipose cells

Row | SMILES | A: sugar transporting activity (EC50) [µg/mL] | EC50 [µg/mL]
13 | COc1cc(Cl)ccc1[C@@H]1C2=C(CNC2=O)N[C@@H]2CCCC[C@H]2N1C(C)=O [Example 110] | 6 | 
14 | CCOc1ccccc1[C@@H]1C2=C(CNC2=O)N[C@@H]2CCCC[C@H]2N1C(=O)C(F)(F)F [Example 90] | 5 | 
15 | CCC(=O)N1[C@@H]2CCCC[C@H]2NC2=C(C(=O)NC2)[C@H]1c1ccccc1CC [Example 127] | 2.2 | 
16 | COc1ccccc1[C@@H]1C2=C(CNC2=O)N[C@@H]2CCCC[C@H]2N1C(=O)CCc1ncc(C)s1 [Example 174] | 0.050 | 
17 | CCOc1ccccc1[C@@H]1C2=C(CNC2=O)N[C@@H]2CCCC[C@H]2N1C(=O)OC [Example 95] | 1.5 | 
18 | CSc1ccccc1[C@@H]1C2=C(CNC2=O)N[C@@H]2CCCC[C@H]2N1C(=O)CCc1ncco1 [Example 168] | 0.070 | 
19 | CCOCC(=O)N1[C@@H]2CCCC[C@H]2NC2=C(C(=O)NC2)[C@H]1c1ccccc1O [Example 104] | 1 | 
20 | CCCNC(=O)N1[C@@H]2CCCC[C@H]2NC2=C(C(=O)NC2)[C@H]1c1ccccc1OC [Example 85] | 7 | 
21 | COCC(=O)N1[C@@H]2CCCC[C@H]2NC2=C(C(=O)NC2)[C@H]1c1ccccc1Cl [Example 144] | 5 | 
22 | CCC(=O)N1[C@@H]2CCCC[C@H]2NC2=C(C(=O)NC2)[C@H]1c1ccccc1Cl [Example 141] | 3 | 
23 | O=C1NCC2=C1[C@@H](c1ccccc1OC(F)(F)F)N(C(=O)CCc1nccs1)[C@@H]1CCCC[C@H]1N2 [Example 171] | 0.070 | 
24 | COc1ccccc1[C@@H]1C2=C(CNC2=O)N[C@@H]2CCCC[C@H]2N1C(=O)CCCO [Example 62] | 4.8 | 
25 | CCc1ccccc1[C@@H]1C2=C(CNC2=O)N[C@@H]2CCCC[C@H]2N1C(C)=O [Example 131] | 4 | 
26 | COc1ccc([C@@H]2C3=C(CNC3=O)N[C@@H]3CCCC[C@H]3N2C(C)=O)cc1 [Example 160] | 4.4 | 
27 | CC(=O)N1[C@@H]2CCCC[C@H]2NC2=C(C(=O)NC2)[C@H]1c1ccccc1O [Example 105] | 3.7 | 
28 | O=C1NCC2=C1[C@@H](c1ccccc1Cl)N(C(=O)CC(F)(F)F)[C@@H]1CCCC[C@H]1N2 [Example 143] | 0.5 | 
29 | COc1ccccc1[C@@H]1C2=C(CNC2=O)N[C@@H]2CCCC[C@H]2N1C(=O)c1ccncc1 [Example 78] | 18 | 
30 | COC(=O)N1[C@@H]2CCCC[C@H]2NC2=C(C(=O)NC2)[C@H]1c1ccccc1F [Example 151] | 2 | 
31 | CCOc1ccccc1[C@@H]1C2=C(CNC2=O)N[C@@H]2CCCC[C@H]2N1C(=O)COC(C)=O [Example 91] | 13 | 
32 | COC(=O)CCC(=O)N1[C@@H]2CCCC[C@H]2NC2=C(C(=O)NC2)[C@H]1c1ccccc1OC [Example 60] | 4.8 | 
33 | CCOC(=O)N1[C@@H]2CCCC[C@H]2NC2=C(C(=O)NC2)[C@H]1c1ccccc1C [Example 124] | 7 | 
34 | CCOCC(=O)N1[C@@H]2CCCC[C@H]2NC2=C(C(=O)NC2)[C@H]1c1ccccc1OC [Example 54] | 2.2 | 

Row | SMILES | A: sugar transporting activity (EC50) [µg/mL] | EC50 [µg/mL]
35 | COc1cccc([C@@H]2C3=C(CNC3=O)N[C@@H]3CCCC[C@H]3N2C(C)=O)c1OC [Example 114] | 12 | 
36 | COc1ccc([C@@H]2C3=C(CNC3=O)N[C@@H]3CCCC[C@H]3N2C(C)=O)c(OC)c1 [Example 115] | 10 | 
37 | CCOC(=O)N1[C@@H]2CCCC[C@H]2NC2=C(C(=O)NC2)[C@H]1c1ccccc1OC [Example 81] | 4.2 | 
38 | CCc1ccccc1[C@@H]1C2=C(CNC2=O)N[C@@H]2CCCC[C@H]2N1C(=O)COC [Example 130] | 6 | 
39 | COc1ccccc1[C@@H]1C2=C(CNC2=O)N[C@@H]2CCCC[C@H]2N1C(=O)COC(C)=O [Example 52] | 5.9 | 
40 | COc1ccccc1[C@@H]1C2=C(CNC2=O)N[C@@H]2CCCC[C@H]2N1C(=O)Cc1ccccc1 [Example 56] | 5 | 
41 | CCC(=O)N1[C@@H]2CCCC[C@H]2NC2=C(C(=O)NC2)[C@H]1c1ccccc1Br [Example 135] | 1.5 | 
42 | CCCC(=O)N1[C@@H]2CCCC[C@H]2NC2=C(C(=O)NC2)[C@H]1c1ccccc1OC [Example 47] | 4.6 | 
43 | CC(=O)N1[C@@H]2CCCC[C@H]2NC2=C(C(=O)NC2)[C@H]1c1ccc(Br)s1 [Example 180] |  | 19 (≈ 46.3 µM)
44 | COc1ccccc1[C@@H]1C2=C(CNC2=O)N[C@@H]2CCCC[C@H]2N1C(=O)C(F)(F)C(F)(F)F [Example 50] | 9.5 | 
45 | COc1cc(F)ccc1[C@@H]1C2=C(CNC2=O)N[C@@H]2CCCC[C@H]2N1C(C)=O [Example 109] | 8 | 
46 | CCOCC(=O)N1[C@@H]2CCCC[C@H]2NC2=C(C(=O)NC2)[C@H]1c1ccccc1OCC [Example 94] | 4 | 
47 | CCCC(=O)N1[C@@H]2CCCC[C@H]2NC2=C(C(=O)NC2)[C@H]1c1ccccc1Cl [Example 142] | 4 | 
48 | CCOCC(=O)N1[C@@H]2CCCC[C@H]2NC2=C(C(=O)NC2)[C@H]1c1ccccc1F [Example 150] | 2 | 
49 | COc1ccccc1[C@@H]1C2=C(CNC2=O)N[C@@H]2CCCC[C@H]2N1C(=O)C(F)(F)F [Example 48] | 4.5 | 
50 | COc1ccccc1[C@@H]1C2=C(CNC2=O)N[C@@H]2CCCC[C@H]2N1C(=O)CC(C)=O [Example 72] | 5.5 | 
51 | COC(=O)CC(=O)N1[C@@H]2CCCC[C@H]2NC2=C(C(=O)NC2)[C@H]1c1ccccc1Cl [Example 146] | 2 | 
52 | COc1ccccc1[C@@H]1C2=C(CNC2=O)N[C@@H]2CCCC[C@H]2N1C(=O)CO [Example 51] | 2 | 
53 | CCOc1ccccc1[C@@H]1C2=C(CNC2=O)N[C@@H]2CCCC[C@H]2N1C(=O)COC [Example 93] | 3.6 | 
54 | COC(=O)N1[C@@H]2CCCC[C@H]2NC2=C(C(=O)NC2)[C@H]1c1ccccc1OC [Example 80] | 6 | 
55 | CCC(=O)N1[C@@H]2CCCC[C@H]2NC2=C(C(=O)NC2)[C@H]1c1ccccc1 [Example 154] | 1.5 | 
56 | CCC(=O)N1[C@@H]2CCCC[C@H]2NC2=C(C(=O)NC2)[C@H]1c1ccc(F)cc1OC [Example 107] | 0.82 | 
